Like-named read-outs stand apart in the source and are kept apart here.
Molecular target: T1, acetylcholinesterase from electrophorus electricus (Electrophorus electricus, UniProt O42275)
T1 construct: purchased Sigma–Aldrich (St. Louis, MO, USA)
Assay: biochemical
Conditions: read-out: AChE inhibitory activity, IC50 Values (converted)
Procedure: All solvents were HPLC grade, purchased from Merck (Darmstadt, Germany). […] Sodium monobasic […] were purchased from Merck (Darmstadt, Germany), and acetylcholinesterase from electrophorus electricus, 5,5′-Dithiobis (2-nitrobenzoic acid), and […] were obtained from Sigma–Aldrich (St. Louis, MO, USA).
The AChE inhibitory activity was evaluated using Ellman’s method, as reported previously. Each sample (20 µL of 5 mg/mL in DMSO) was dispensed in triplicate into a 96-well microplate and mixed with 190 µL of DTNB, 20 µL of substrate (ATCI). The control wells contained 2% of DMSO instead of the extract. The enzymatic activity was measured at 412 nm every 30 s intervals for 3 min. The buffer solution was used as negative control.
The percentage inhibition (%I) of each sample and the positive control (physostigmine) was calculated using the formula:%I: [(Ac − As)/(Ac)] × 100(1) where (%I): Percentage inhibition • Ac: Absorbance of negative control • As: Absorbance of sample
The experiments were expressed as the mean ± standard error of the mean (SEM) in triplicates.

[1] = Ellman's method, 412 nm, mean ± SEM, triplicates

T1 sequence (O42275 24-633): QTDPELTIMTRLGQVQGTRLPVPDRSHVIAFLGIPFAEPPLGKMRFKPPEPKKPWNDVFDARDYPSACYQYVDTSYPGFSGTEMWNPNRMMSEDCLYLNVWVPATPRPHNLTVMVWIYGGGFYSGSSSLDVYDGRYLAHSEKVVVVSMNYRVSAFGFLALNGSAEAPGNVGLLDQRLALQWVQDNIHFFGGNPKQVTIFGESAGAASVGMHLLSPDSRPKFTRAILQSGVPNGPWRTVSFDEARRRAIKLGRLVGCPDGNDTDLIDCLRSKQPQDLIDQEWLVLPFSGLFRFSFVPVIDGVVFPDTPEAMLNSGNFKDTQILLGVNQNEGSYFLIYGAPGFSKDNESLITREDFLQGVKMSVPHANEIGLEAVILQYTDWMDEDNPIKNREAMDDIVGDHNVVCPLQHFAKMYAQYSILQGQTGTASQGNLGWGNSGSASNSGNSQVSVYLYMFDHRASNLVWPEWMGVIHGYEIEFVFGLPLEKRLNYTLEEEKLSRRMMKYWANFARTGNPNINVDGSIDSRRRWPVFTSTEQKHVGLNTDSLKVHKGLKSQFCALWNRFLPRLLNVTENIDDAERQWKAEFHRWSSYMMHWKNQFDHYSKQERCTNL

Q: With C[C@H]1[C@H](C)CC[C@]2(C(=O)O)CC[C@]3(C)C(=CC[C@@H]4[C@@]5(C)C[C@@H](O)[C@H](O)[C@@](C)(CO)[C@@H]5CC[C@]43C)[C@H]12 [Asiatic acid, asiatic acid] as the molecule, how does the IC50 [1] read?
A: The IC50 was 30.8 µM.

Q: With C[C@H]1[C@H](C)CC[C@]2(C(=O)O)CC[C@]3(C)C(=CC[C@@H]4[C@@]5(C)C[C@@H](O)[C@H](O)[C@@](C)(CO)[C@@H]5[C@H](O)C[C@]43C)[C@H]12 [Madecassic acid, madecassic acid] as the molecule, how does the IC50 [1] read?
A: The IC50 was 35.3 µM.

Q: C[C@H]1[C@H](C)CC[C@]2(C(=O)O[C@@H]3O[C@H](CO[C@@H]4O[C@H](CO)[C@@H](O[C@@H]5O[C@@H](C)[C@H](O)[C@@H](O)[C@H]5O)[C@H](O)[C@H]4O)[C@@H](O)[C@H](O)[C@H]3O)CC[C@]3(C)C(=CC[C@@H]4[C@@]5(C)C[C@@H](O)[C@H](O)[C@@](C)(CO)[C@@H]5[C@H](O)C[C@]43C)[C@H]12 [Madecassoside, madecassoside] was tested. Which IC50 did it give?
A: The IC50 was 38.1 µM.

Reference: paper PMC7436049, “Combining In Silico and In Vitro Studies to Evaluate the Acetylcholinesterase Inhibitory Profile of Different Accessions and the Biomarker Triterpenes of Centella asiatica” (Molecules, 2020)
